≈ marks a conversion by molar mass, not a printed value.
How the values were obtained:
[1] = Cytotoxic concentration required to reduce CEM cell viability by 50%; format: cell-based; conditions: human, CCRF-CEM (CEM) cells
Cytomegalovirus [2] = test: Minimum Inhibition Concentration (MIC) for activity against Cytomegalovirus (CMV) using Davis strain; format: functional; conditions: Human betaherpesvirus 5
[3] = Cytotoxic concentration required to cause microscopically detectable alteration of normal cell morphology of E6SM cells; format: cell-based; conditions: human, read-out: CC50
Human alphaherpesvirus 3 [4] = test: Minimum Inhibition Concentration (MIC) for activity against Varicella-Zoster Virus(VZV) using YS(TK+) strain.; format: functional
Cytomegalovirus [5] = test: Minimum Inhibitory Concentration (MIC) tested for activity against Cytomegalovirus (CMV) using AD169 strain; format: functional; conditions: Human betaherpesvirus 5
[6] = (§1) Cytotoxic concentration required to cause microscopically detectable alteration of normal cell morphology of HeLa cells; format: cell-based; conditions: human, read-out: CC50
Human alphaherpesvirus 3 [7] = test: Minimum Inhibitory Concentration (MIC) tested for activity against Varicella-Zoster Virus(VZV) using YS/R (TK-) strain.; format: functional
Human alphaherpesvirus 3 [8] = test: Minimum Inhibitory Concentration (MIC) for activity against Varicella-Zoster Virus(VZV) using OKA (TK+) strain; format: functional
[9] = (§2) Cytotoxic concentration required to cause microscopically detectable alteration of normal cell morphology of Vero cells; format: cell-based; conditions: chlorocebus sabaeus, read-out: CC50
[10] = Minimum cytotoxic concentration to reduce the HEL cell proliferation by 50%; format: cell-based; conditions: human, HEL cells; read-out: MCC
[11] = Minimum cytotoxic concentration required to reduce human embryonic lung (HEL) cell proliferation by 50%; format: cell-based; conditions: human embryonic lung (HEL) cells, read-out: MCC
Cytomegalovirus [12] = test: Minimum Inhibitory Concentration (MIC) tested for activity against Cytomegalovirus (CMV) using Davis strain; format: functional; conditions: Human betaherpesvirus 5
Human alphaherpesvirus 3 [13] = test: Minimum Inhibition Concentration (MIC) for activity against Varicella-Zoster Virus(VZV) using OKA (TK+) strain; format: functional
Human alphaherpesvirus 3 [14] = test: Minimum Inhibition Concentration (MIC) for activity against Varicella-Zoster Virus(VZV) using YS/R (TK-) strain.; format: functional
Human alphaherpesvirus 3 [15] = test: Minimum Inhibition Concentration( MIC) for activity against Varicella-Zoster Virus(VZV) using YS(TK+) strain.; format: functional
Human alphaherpesvirus 3 [16] = test: Minimum Inhibition Concentration (MIC) for activity against Varicella-Zoster Virus(VZV) using 07/1 (TK-) strain.; format: functional
Cytomegalovirus [17] = test: Minimum Inhibition Concentration( MIC) for activity against Cytomegalovirus (CMV) using AD169 strain; format: functional; conditions: Human betaherpesvirus 5
Human alphaherpesvirus 3 [18] = test: Minimum Inhibitory Concentration (MIC) tested for activity against Varicella-Zoster Virus(VZV) using 07/1 (TK-) strain.; format: functional
Human alphaherpesvirus 3 [19] = test: Minimum Inhibitory Concentration (MIC) tested for activity against Varicella-Zoster Virus(VZV) using YS(TK+) strain.; format: functional
HeLa = test: as §1; format: cell-based; conditions: Homo sapiens
Vero = test: as §2; format: cell-based; conditions: Chlorocebus sabaeus
Human alphaherpesvirus 3 [20] = test: Minimum Inhibition Concentration( MIC) for activity against Varicella-Zoster Virus(VZV) using YS/R (TK-) strain.; format: functional
Cytomegalovirus [21] = test: Minimum Inhibition Concentration (MIC) for activity against Cytomegalovirus (CMV) using AD169 strain; format: functional; conditions: Human betaherpesvirus 5

Cc1ccn2c(CSCC(C)O)cnc2c1 (stereo not drawn) showed a CC50 [1] of 60 mg/L (≈ 254 µM), an MIC (Cytomegalovirus [2]) greater than 50 mg/L and an MCC [3] greater than 400 µg/mL. The MIC (Human alphaherpesvirus 3 [4]) was greater than 100 mg/L, the MIC (Cytomegalovirus [5]) was greater than 50 mg/L and the MCC [6] was 400 µg/mL. It also gave an MIC (Human alphaherpesvirus 3 [7]) of 100 mg/L (≈ 423 µM), an MIC (Human alphaherpesvirus 3 [8]) greater than 100 mg/L and an MCC [9] greater than 400 µg/mL. It also gave a CC50 [10] greater than 100 mg/L.
Compound COC(=O)c1nc2ccccn2c1CSCCO has a CC50 [1] of 87 mg/L (≈ 327 µM), an MCC [3] greater than 400 µg/mL and a CC50 [11] greater than 100 mg/L. It also gave an MIC (Human alphaherpesvirus 3 [4]) greater than 25 mg/L, an MIC (Cytomegalovirus [5]) greater than 50 mg/L and an MIC (Cytomegalovirus [12]) greater than 50 mg/L. The MCC [6] was greater than 200 µg/mL, the MIC (Human alphaherpesvirus 3 [7]) was greater than 25 mg/L and the MIC (Human alphaherpesvirus 3 [8]) was greater than 25 mg/L. The MCC [9] was greater than 400 µg/mL.
Work on Cc1cccn2c(CSCc3ccccc3)cnc12 yielded an MIC (Human alphaherpesvirus 3 [13]) of 0.9 mg/L (≈ 3.35 µM), a CC50 [1] of 0.5 mg/L (≈ 1.86 µM) and an MIC (Human alphaherpesvirus 3 [14]) greater than 1 mg/L. For the same compound, the MIC (Cytomegalovirus [2]) was 0.2 mg/L (≈ 0.745 µM), the MIC (Human alphaherpesvirus 3 [15]) was 0.3 mg/L (≈ 1.12 µM) and the MCC [3] was 40 µg/mL. It also gave an MIC (Human alphaherpesvirus 3 [16]) of 0.4 mg/L (≈ 1.49 µM), an MIC (Cytomegalovirus [17]) of 0.2 mg/L (≈ 0.745 µM) and an MCC [6] of 4 µg/mL. It also gave an MCC [9] of 100 µg/mL and a CC50 [10] of 8 mg/L (≈ 29.8 µM).
Compound Cc1c(Br)c(C)n2c(CSCc3ccccc3)cnc2c1Br has an MIC (Human alphaherpesvirus 3 [13]) greater than 40 mg/L, a CC50 [1] of 35 mg/L (≈ 79.5 µM) and an MIC (Human alphaherpesvirus 3 [14]) of 40 mg/L (≈ 90.9 µM). It also gave an MCC [3] greater than 40 µg/mL, an MIC (Human alphaherpesvirus 3 [4]) greater than 40 mg/L and an MIC (Cytomegalovirus [5]) of 1.7 mg/L (≈ 3.86 µM). For the same compound, the MIC (Cytomegalovirus [12]) was 4 mg/L (≈ 9.09 µM), the MIC (Human alphaherpesvirus 3 [16]) was 40 mg/L (≈ 90.9 µM) and the MCC [6] was greater than 100 µg/mL. For the same compound, the MCC [9] was greater than 40 µg/mL and the CC50 [10] was greater than 100 mg/L.
With CCSCc1cnc2c(C)cccn12 the CC50 [1] was 4.1 mg/L (≈ 19.9 µM), the MIC (Human alphaherpesvirus 3 [14]) was greater than 10 mg/L and the MIC (Human alphaherpesvirus 3 [18]) was 6.8 mg/L (≈ 33 µM). For the same compound, the MCC [3] was 200 µg/mL, the MIC (Cytomegalovirus [5]) was 2 mg/L (≈ 9.69 µM) and the MIC (Human alphaherpesvirus 3 [19]) was 5 mg/L (≈ 24.2 µM). It also gave an MIC (Cytomegalovirus [12]) of 2 mg/L (≈ 9.69 µM), an MCC [6] of 10 µg/mL and an MIC (Human alphaherpesvirus 3 [8]) of 10 mg/L (≈ 48.5 µM). The MCC [9] was 400 µg/mL and the CC50 [10] was 35 mg/L (≈ 170 µM).
Work on CCCCOc1ccc(S(=O)(=O)[C@@](C)(Cc2ccc(OCCN3CCCCC3)cc2)C(=O)NO)cc1 yielded an EC50 (HeLa) greater than 400 mg/L and an EC50 (Vero) greater than 400 mg/L.
Nc1ccn(C[C@@H](CO)OCP(=O)(O)O)c(=O)n1.O.O [CIDOFOVIR] gave an MIC (Human alphaherpesvirus 3 [13]) of 0.04 mg/L, an MIC (Human alphaherpesvirus 3 [14]) of 0.004 mg/L and an MIC (Human alphaherpesvirus 3 [4]) of 0.033 mg/L. For the same compound, the MIC (Cytomegalovirus [5]) was 0.05 mg/L, the MIC (Cytomegalovirus [12]) was 0.05 mg/L and the CC50 [10] was greater than 100 mg/L.
Cc1cn([C@H]2C[C@H](N=[N+]=[N-])[C@@H](CO)O2)c(=O)[nH]c1=O [ZIDOVUDINE] showed a CC50 [1] greater than 125 mg/L.
In the case of Cc1cccn2c(CSCCO)cnc12, the CC50 [1] is reported as 9.5 mg/L (≈ 42.7 µM), the MIC (Human alphaherpesvirus 3 [14]) is reported as greater than 10 mg/L and the MIC (Human alphaherpesvirus 3 [18]) is reported as 15 mg/L (≈ 67.5 µM). It also gave an MCC [3] of 400 µg/mL, an MIC (Cytomegalovirus [5]) of 7 mg/L (≈ 31.5 µM) and an MIC (Human alphaherpesvirus 3 [19]) of 10 mg/L (≈ 45 µM). It also gave an MIC (Cytomegalovirus [12]) of 6 mg/L (≈ 27 µM), an MCC [6] of 40 µg/mL and an MIC (Human alphaherpesvirus 3 [8]) of 25 mg/L (≈ 112 µM). For the same compound, the MCC [9] was 400 µg/mL and the CC50 [10] was 85 mg/L (≈ 382 µM).
Compound CCOC(=O)CSCc1cnc2cc(C)ccn12 has a CC50 [1] of 37 mg/L (≈ 140 µM), an MIC (Human alphaherpesvirus 3 [18]) greater than 40 mg/L and an MCC [3] of 200 µg/mL. The MIC (Cytomegalovirus [5]) was 25 mg/L (≈ 94.6 µM), the MIC (Human alphaherpesvirus 3 [19]) was greater than 40 mg/L and the MIC (Cytomegalovirus [12]) was 23 mg/L (≈ 87 µM). The MCC [6] was greater than 100 µg/mL, the MIC (Human alphaherpesvirus 3 [7]) was greater than 40 mg/L and the MIC (Human alphaherpesvirus 3 [8]) was greater than 40 mg/L. It also gave an MCC [9] greater than 200 µg/mL and a CC50 [10] of 80 mg/L (≈ 303 µM).
Work on Cc1cccc2ncc(CSCc3ccccc3)n12 yielded a CC50 [1] of 9.9 mg/L (≈ 36.9 µM), an MCC [3] of 10 µg/mL and an MCC [6] of 40 µg/mL. It also gave an MCC [9] of 40 µg/mL.
Compound Cc1cccc2ncc(CSCCO)n12 has a CC50 [1] of 22 mg/L (≈ 99 µM), an MIC (Human alphaherpesvirus 3 [14]) greater than 10 mg/L and an MIC (Human alphaherpesvirus 3 [18]) greater than 10 mg/L. It also gave an MCC [3] of 200 µg/mL, an MIC (Cytomegalovirus [5]) greater than 10 mg/L and an MIC (Human alphaherpesvirus 3 [19]) greater than 10 mg/L. It also gave an MIC (Cytomegalovirus [12]) greater than 10 mg/L, an MCC [6] of 100 µg/mL and an MIC (Human alphaherpesvirus 3 [8]) greater than 10 mg/L. It also gave an MCC [9] of 200 µg/mL and a CC50 [10] of 40 mg/L (≈ 180 µM).
For Cc1c(Br)cn2c(CSCc3ccccc3)cnc2c1Br, the MIC (Human alphaherpesvirus 3 [13]) was 2.7 mg/L (≈ 6.34 µM), the CC50 [1] was 5 mg/L (≈ 11.7 µM) and the MIC (Cytomegalovirus [2]) was 2 mg/L (≈ 4.69 µM). It also gave an MCC [3] of 40 µg/mL, an MIC (Human alphaherpesvirus 3 [4]) of 1.8 mg/L (≈ 4.22 µM) and an MIC (Human alphaherpesvirus 3 [20]) of 2 mg/L (≈ 4.69 µM). For the same compound, the MIC (Cytomegalovirus [21]) was greater than 1 mg/L, the MIC (Human alphaherpesvirus 3 [16]) was 2.3 mg/L (≈ 5.4 µM) and the MCC [6] was 40 µg/mL. The MCC [9] was 40 µg/mL and the CC50 [10] was 30 mg/L (≈ 70.4 µM).
With CC(O)CSCc1cnc2ncccn12 (stereo not drawn) the CC50 [1] was greater than 100 mg/L, the MIC (Human alphaherpesvirus 3 [14]) was greater than 40 mg/L and the MIC (Human alphaherpesvirus 3 [18]) was greater than 40 mg/L. The MCC [3] was greater than 400 µg/mL, the MIC (Cytomegalovirus [5]) was greater than 40 mg/L and the MIC (Human alphaherpesvirus 3 [19]) was greater than 40 mg/L. It also gave an MIC (Cytomegalovirus [12]) greater than 40 mg/L, an MCC [6] of 400 µg/mL and an MIC (Human alphaherpesvirus 3 [8]) greater than 40 mg/L. For the same compound, the MCC [9] was greater than 400 µg/mL and the CC50 [10] was greater than 100 mg/L.
With Nc1nc2c(ncn2COCCO)c(=O)[nH]1 [ACYCLOVIR] the MCC [3] was greater than 400 µg/mL and the CC50 [10] was greater than 100 mg/L.

Source: ChEMBL document CHEMBL1129240, “Synthesis of acyclo-C-nucleosides in the imidazo[1,2-a]pyridine and pyrimidine series as antiviral agents” (J Med Chem, 1996)
